Results from article PMC3959589 (Analytical and bioanalytical chemistry, 2014).

How the values were obtained:
[1] = test system: plasma protein; conditions: cited from earlier work
[2] = target: T1, human serum albumin (HSA) (Homo sapiens, UniProt P02768); test: biochemical
[3] = target: T1, human serum albumin (HSA); conditions: dose-response, 500 nM Red Mega 500, 0.2 mg/mL HSA

T1 sequence (P02768 25-609): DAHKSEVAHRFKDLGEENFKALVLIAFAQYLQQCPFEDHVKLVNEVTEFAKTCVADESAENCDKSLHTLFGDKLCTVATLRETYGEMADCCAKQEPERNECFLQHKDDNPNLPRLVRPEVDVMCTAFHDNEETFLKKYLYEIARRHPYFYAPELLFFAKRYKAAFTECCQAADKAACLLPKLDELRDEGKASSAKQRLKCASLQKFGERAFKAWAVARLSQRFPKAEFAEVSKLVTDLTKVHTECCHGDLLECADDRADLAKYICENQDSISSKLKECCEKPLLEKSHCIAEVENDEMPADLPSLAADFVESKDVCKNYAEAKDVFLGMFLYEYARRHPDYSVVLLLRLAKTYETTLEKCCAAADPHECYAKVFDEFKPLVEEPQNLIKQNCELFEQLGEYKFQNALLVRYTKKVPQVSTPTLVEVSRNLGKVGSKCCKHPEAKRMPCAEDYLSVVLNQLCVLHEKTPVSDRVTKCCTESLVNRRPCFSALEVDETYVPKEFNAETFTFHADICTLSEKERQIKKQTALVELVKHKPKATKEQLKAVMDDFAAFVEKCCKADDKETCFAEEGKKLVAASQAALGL

SMILES | plasma protein binding class (low / medium / high) [1] | IC50 [2] [µM] | efficacy of inhibition of HSA–Red Mega 500 binding [3]
CC/C(=C(/CC)c1ccc(O)cc1)c1ccc(O)cc1 [diethylstilbestrol] | medium | 4.4 ± 1.9 | weaker efficacy
CN1C(C(=O)Nc2ccccn2)=C(O)c2ccccc2S1(=O)=O [piroxicam] | high | – | –
Cc1c(OCC(F)(F)F)ccnc1C[S+]([O-])c1nc2ccccc2[nH]1 (stereo not drawn) [lansoprazole] | high | – | –
COc1ccc2[nH]c([S+]([O-])Cc3ncc(C)c(OC)c3C)nc2c1 (stereo not drawn) [omeprazole] | high | – | –
